Experimental data taken from US20090048182A1, “Cosmetic Use of at Least One Natural Ac-N-Ser-Asp-Lys-Pro-Tetrapeptide or One of Its Analogues as Agent for Slowing Down Loss of Hair and/or Stimulating Hair Growth” (CENTRE NATIONAL DE LA RECHERCHE SCIENTIFQUE (CNRS, priority 2005, published 2009).
Residues, ends and D or L forms follow the SMILES beside them.

Assays:
[1] = test system: isolated human hair explants (hair follicles); test: Growth (length) of isolated human hairs maintained in ex vivo survival; type: cell-based
Description: (§1) Study of the stimulating activity of tetrapeptide AcSDKP on the growth of isolated hairs maintained in a state of ex vivo survival. This study was conducted on 66 human hair explants obtained from scalp-plasty.
(§2) Hairs comprised of hair follicles were isolated by micro dissection and individually placed in wells (96-well culture plate) and maintained in survival for 15 days under conventional tissue culturing conditions (37° C., 5% CO2) in Williams medium.
(§3) Tetrapeptide AcSDKP added to the culture medium was tested at three concentrations: 10^−4 M, 10^−7 M and 10^−10 M. Minoxidil® (2,4-diamino 6-piperidinopyrimidine 3-oxide) at a concentration of 10^−5 M was used as a positive control.
(§4) Culture mediums containing the compounds to be tested were renewed every three days.
Hairs were photographed using a microscope and a CCD camera coupled to acquisition software and archiving.
Each hair was measured on D0, D3, D6, D8, D10, D13 and D15 using a LEICA IM1000 measurement module to give measurements in μm.
Each hair was photographed and its length evaluated using software giving values in μm.

[2] = test system: cells in mitosis (Ki67) in the epithelial sheath of hair; test: Cell proliferation: anti-Ki67 immunolabeling of cells in mitosis along the epithelial sheath of isolated hairs; type: cell-based, human
Description: as §1, §2, §3, §4
(§5) On D8 and D15 of treatment, six hairs from each batch (untreated control, Minoxidil®, +AcSDKP 10^−4 M, +AcSDKP 10^−7 M, +AcSDKP 10^−10 M) were removed and prepared for histological study.
(§6) Three explants from each batch were fixed in ordinary Bouin and the three other hairs were frozen and stored at −80° C.
(§7) In addition to measurements of the length of each hair, the general morphology of each hair was analysed and the expression of laminin 5 and collagen IV, two constituents of the basal membrane, was evaluated. Moreover, immunolabeling with anti-Ki67 antibodies (nuclear protein expressed in growing cells) was carried out of cells in mitosis in order to establish the mitotic index of follicle structures.
This study was conducted on cuts of frozen hairs.

[3] = test system: collagen IV; test: Immunolabeling of basal membrane collagen (type IV) on frozen cuts of isolated hairs; type: cell-based, human
Description: as §1, §2, §3, §4, §5, §6, §7
Immunolabeling of type IV collagen was carried out on frozen cuts of the control hairs and hairs treated with AcSDKP or Minoxidil® in order to quantify this constituent of the basal membrane which separates the dermal compartment from the epithelial compartment.

[4] = test system: neo-keratinocytes / epithelial sheaths of isolated hairs; test: General morphology of histological cuts of isolated hairs (Masson Trichromium): neo-keratinocytes, epithelial sheaths; type: cell-based, human
Description: as §1, §2, §3, §4, §5, §6, §7
Analysis of the general morphology of histological cuts stained with Masson Trichromium focusing on the area between the opening of the sebaceous glands and the hair bulb.
Hairs cultured on D0 naturally undergo changes during survival as is observed after an in vivo graft. The restructuring effect of AcSDKP was visualised through the appearance of neo-keratinocytes along the conjunctival sheath which migrate from the bulge and to a lesser extent from the bulb, two regions where stem cells are found. […] This effect leads to clear appearance of neo-keratinocytes along the length of the hair, from the epidermis to the bulb. The structure of the neo-keratinocytes formed in this way is uniform and stratified. It varies as a function of treatment time and AcSDKP concentration. The clearest activity was found on D15 of treatment with AcSDKP at 10^−10 M.

[5] = test system: keratin 19 (CK19); test: Immunolabeling of keratin 19 (CK19), epithelial stem cell marker, on frozen cuts of isolated hairs; type: cell-based, human
Description: as §1, §2, §3, §4, §5, §6
Immunolabeling of keratin 19 (CK19) was carried out on frozen cuts of control hairs and hairs treated with AcSDKP or Minoxidil® in order to evaluate the proportion of undifferentiated primitive cells (or even stem cells) present in the external epithelial sheaths of the hair follicles. […]

[6] = test system: laminin 5; test: Immunolabelling of laminin 5 in isolated hairs; type: cell-based, human
Description: Study of the stimulating activity of tetrapeptide AcSDKP on the growth of isolated hairs maintained in a state of ex vivo survival. This study was conducted on 66 human hair explants obtained from scalp-plasty. Hairs comprised of hair follicles were isolated by micro dissection and individually placed in wells (96-well culture plate) and maintained in survival for 15 days under conventional tissue culturing conditions (37° C., 5% CO2) in Williams medium. Tetrapeptide AcSDKP added to the culture medium was tested at three concentrations: 10^−4 M, 10^−7 M and 10^−10 M. Minoxidil® (2,4-diamino 6-piperidinopyrimidine 3-oxide) at a concentration of 10^−5 M was used as a positive control. Culture mediums containing the compounds to be tested were renewed every three days. On D8 and D15 of treatment, six hairs from each batch (untreated control, Minoxidil®, +AcSDKP 10^−4 M, +AcSDKP 10^−7 M, +AcSDKP 10^−10 M) were removed and prepared for histological study. Three explants from each batch were fixed in ordinary Bouin and the three other hairs were frozen and stored at −80° C. In addition to measurements of the length of each hair, the general morphology of each hair was analysed and the expression of laminin 5 and collagen IV, two constituents of the basal membrane, was evaluated. […]

Structure (SMILES)	Hair growth (length of hair) ([1]; 10^−10 M in culture medium, D15 of treatment)	Hair growth (length of hair shafts) ([1]; higher concentrations (10^−4 M, 10^−7 M), D15)	Increase in number of cells in mitosis compared to control hair ([2]; 10^−10 M, D8 of treatment)	Average number of cells in mitosis per mm of hair ([2]; AcSDKP 10^−7 M, D8)	Number of cells in mitosis in treated hair compared to control hair ([2]; three concentrations tested (10^−4 M, 10^−7 M, 10^−10 M))	Increase in collagen IV levels ([3]; D8 and D15, AcSDKP 10^−10 M)	Collagen IV expression in the bulb and median section of hair ([3]; as of D8, AcSDKP at the three concentrations tested)	Restructuring of the epithelial sheaths ([4]; AcSDKP in the culture medium, as of D8 of treatment)	Adherence of epithelial sheaths to collagen ([4]; D8, AcSDKP 10^−4 M)	Neo-keratinocyte sites ([4]; D8, AcSDKP 10^−4 M)	Adherence of epithelium to the underlying collagen ([4]; D8, the two active concentrations (10^−7 M and 10^−10 M))	Neo-keratinocyte structure thickness ([4]; D15, AcSDKP 10^−4 M, 10^−7 M and especially 10^−10 M)	Increase in CK19 levels ([5]; D8 and D15, AcSDKP 10^−10 M)	Expression of CK19 compared to control hair and Minoxidil-treated hair ([5]; hair kept in survival in presence of the tetrapeptide)	Laminin 5 increase in the median zone of hair ([6]; D8, AcSDKP 10^−10 M)	Expression of laminin 5 ([6]; D15, AcSDKP 10^−7 M)	Collagen IV expression ([3]; hair treated with Minoxidil)	Adherence of epithelial sheaths to collagen ([4]; D8, Minoxidil)	Neo-keratinocyte sites ([4]; D8, Minoxidil 10 μM)	Neo-keratinocyte structure compared to untreated hair ([4]; D15, Minoxidil 10^−5 M)
CC(=O)N[C@@H](CO)C(=O)N[C@@H](CC(=O)O)C(=O)N[C@@H](CCCCN)C(=O)N1CCC[C@H]1C(=O)O [AcSDKP, CH3CO-Ser-Asp-Lys-Pro-OH] (Ac-SDKP-OH)	significantly stimulates hair growth	no significant difference	+300%	34 per mm of hair	significantly increases the number of cells in mitosis	all the more marked	very clear increase in collagen IV	leads to restructuring of the epithelial sheaths	more or less detached	absent	adheres fully	increasingly thicker	maximal	significantly greater	considerably more marked	higher				
Nc1cc(N2CCCCC2)nc(N)[n+]1[O-] [Minoxidil ®, 2,4-diamino 6-piperidinopyrimidine 3-oxide, reference compound]																	often less evident	more or less detached	absent	slightly more structured
